Results reported in patent publication US20250382297A1, “INHIBITORS OF FGFR2 AND FGFR3 AND USES THEREOF” (Insilico Medicine IP Limited, priority 2022, published 2025).
Where two headings read alike, the source gives them in different places.

How the values were obtained:
[1] = biological target: FGFR4 (Homo sapiens (Human), UniProt P22455); experiment: FGFR biochemical assay (LanthaScreen TR-FRET kinase assay), FGFR4
Description: (§1) Convert Ratio values to percent inhibition values (Percent inhibition=(max−sample Ratio)/(max−min)*100) where “min” means the Ratio of no enzyme control and “max” means the Ratio of DMSO control. • Data are analyzed and curve fitting is performed by XLFit Excel add-in version 5.4.0.8. The IC50 calculation equation is: Y=Bottom+(Top-Bottom)/(1+ (IC50/X)^HillSlope.

[2] = biological target: FGFR3 (Homo sapiens (Human), UniProt P22607); experiment: FGFR biochemical assay (LanthaScreen TR-FRET kinase assay), FGFR3
Description: as §1

[3] = biological target: FGFR2 (Homo sapiens (Human), UniProt P21802); experiment: FGFR biochemical assay (LanthaScreen TR-FRET kinase assay), FGFR2
Description: as §1

[4] = biological target: FGFR1 (Homo sapiens (Human), UniProt P11362); experiment: FGFR biochemical assay (LanthaScreen TR-FRET kinase assay), FGFR1
Description: as §1

[5] = read-out: FGFR2 IC50, incubation with enzyme at room temperature for 10 minutes before substrate, ATP 22 μM, FGFR2 0.01 nM

FGFR3, sequence (P22607 23-806): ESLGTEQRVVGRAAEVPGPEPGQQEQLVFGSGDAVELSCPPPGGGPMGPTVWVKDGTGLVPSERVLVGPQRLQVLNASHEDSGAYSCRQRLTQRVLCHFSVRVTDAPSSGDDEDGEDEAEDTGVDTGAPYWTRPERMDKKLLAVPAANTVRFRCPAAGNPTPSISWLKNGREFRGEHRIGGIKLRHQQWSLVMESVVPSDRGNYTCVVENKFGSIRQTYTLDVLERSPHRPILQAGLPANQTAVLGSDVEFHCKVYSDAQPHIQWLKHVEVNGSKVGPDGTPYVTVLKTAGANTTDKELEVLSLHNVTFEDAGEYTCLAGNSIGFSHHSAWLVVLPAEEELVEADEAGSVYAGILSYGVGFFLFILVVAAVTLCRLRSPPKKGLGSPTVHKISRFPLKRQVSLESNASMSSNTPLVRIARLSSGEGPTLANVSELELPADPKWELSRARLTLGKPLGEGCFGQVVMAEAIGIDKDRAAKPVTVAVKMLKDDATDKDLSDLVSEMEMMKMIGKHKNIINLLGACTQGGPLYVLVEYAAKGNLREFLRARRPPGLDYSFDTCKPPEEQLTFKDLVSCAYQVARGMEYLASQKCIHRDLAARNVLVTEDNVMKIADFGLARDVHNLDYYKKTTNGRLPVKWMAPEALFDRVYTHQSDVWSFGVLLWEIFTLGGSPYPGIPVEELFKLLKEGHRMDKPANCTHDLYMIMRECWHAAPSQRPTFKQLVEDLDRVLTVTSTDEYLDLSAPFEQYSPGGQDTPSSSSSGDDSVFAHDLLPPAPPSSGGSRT
FGFR1, sequence (P11362 22-822): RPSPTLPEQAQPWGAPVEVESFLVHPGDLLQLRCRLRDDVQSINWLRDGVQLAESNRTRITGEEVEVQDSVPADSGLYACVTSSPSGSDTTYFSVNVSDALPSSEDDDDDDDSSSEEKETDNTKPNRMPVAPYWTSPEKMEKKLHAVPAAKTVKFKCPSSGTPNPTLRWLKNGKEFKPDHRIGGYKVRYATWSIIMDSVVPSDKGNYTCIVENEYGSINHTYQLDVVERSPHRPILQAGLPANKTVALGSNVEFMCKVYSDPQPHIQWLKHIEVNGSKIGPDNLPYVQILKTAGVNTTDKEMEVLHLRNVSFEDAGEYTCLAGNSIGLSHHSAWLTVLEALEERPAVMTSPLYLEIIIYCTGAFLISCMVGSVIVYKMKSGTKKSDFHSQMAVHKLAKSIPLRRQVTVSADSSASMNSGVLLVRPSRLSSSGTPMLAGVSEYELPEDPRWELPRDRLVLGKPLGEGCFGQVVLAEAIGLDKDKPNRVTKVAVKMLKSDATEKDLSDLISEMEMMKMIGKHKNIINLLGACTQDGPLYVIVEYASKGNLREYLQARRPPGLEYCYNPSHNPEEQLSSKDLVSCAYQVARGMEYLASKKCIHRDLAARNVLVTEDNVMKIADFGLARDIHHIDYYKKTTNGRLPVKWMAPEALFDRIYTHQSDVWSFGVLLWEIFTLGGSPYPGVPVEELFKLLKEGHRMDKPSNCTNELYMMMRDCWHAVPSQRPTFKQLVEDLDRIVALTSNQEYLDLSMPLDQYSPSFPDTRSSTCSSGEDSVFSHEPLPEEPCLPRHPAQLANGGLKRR
FGFR4, sequence (P22455 22-802): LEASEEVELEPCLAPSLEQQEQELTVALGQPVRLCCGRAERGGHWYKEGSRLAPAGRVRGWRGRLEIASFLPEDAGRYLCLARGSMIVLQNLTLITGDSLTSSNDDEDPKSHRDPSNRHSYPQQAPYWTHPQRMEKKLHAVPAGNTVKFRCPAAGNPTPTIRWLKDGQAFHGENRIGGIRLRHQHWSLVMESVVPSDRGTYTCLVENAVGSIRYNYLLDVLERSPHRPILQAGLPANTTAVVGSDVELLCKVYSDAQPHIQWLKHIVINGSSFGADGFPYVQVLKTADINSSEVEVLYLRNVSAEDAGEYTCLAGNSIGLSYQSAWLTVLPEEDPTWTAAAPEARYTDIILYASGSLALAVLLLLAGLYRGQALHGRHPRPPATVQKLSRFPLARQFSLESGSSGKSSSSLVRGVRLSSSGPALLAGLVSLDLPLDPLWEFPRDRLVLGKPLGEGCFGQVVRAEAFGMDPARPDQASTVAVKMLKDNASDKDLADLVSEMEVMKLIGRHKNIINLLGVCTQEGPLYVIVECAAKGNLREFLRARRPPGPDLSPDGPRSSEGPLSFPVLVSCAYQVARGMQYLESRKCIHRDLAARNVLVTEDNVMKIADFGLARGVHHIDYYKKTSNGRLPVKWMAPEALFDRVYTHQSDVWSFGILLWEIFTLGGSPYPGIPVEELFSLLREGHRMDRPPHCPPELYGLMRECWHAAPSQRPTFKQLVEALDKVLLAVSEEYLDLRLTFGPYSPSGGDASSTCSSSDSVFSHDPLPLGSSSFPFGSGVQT
FGFR2, sequence (P21802 22-821): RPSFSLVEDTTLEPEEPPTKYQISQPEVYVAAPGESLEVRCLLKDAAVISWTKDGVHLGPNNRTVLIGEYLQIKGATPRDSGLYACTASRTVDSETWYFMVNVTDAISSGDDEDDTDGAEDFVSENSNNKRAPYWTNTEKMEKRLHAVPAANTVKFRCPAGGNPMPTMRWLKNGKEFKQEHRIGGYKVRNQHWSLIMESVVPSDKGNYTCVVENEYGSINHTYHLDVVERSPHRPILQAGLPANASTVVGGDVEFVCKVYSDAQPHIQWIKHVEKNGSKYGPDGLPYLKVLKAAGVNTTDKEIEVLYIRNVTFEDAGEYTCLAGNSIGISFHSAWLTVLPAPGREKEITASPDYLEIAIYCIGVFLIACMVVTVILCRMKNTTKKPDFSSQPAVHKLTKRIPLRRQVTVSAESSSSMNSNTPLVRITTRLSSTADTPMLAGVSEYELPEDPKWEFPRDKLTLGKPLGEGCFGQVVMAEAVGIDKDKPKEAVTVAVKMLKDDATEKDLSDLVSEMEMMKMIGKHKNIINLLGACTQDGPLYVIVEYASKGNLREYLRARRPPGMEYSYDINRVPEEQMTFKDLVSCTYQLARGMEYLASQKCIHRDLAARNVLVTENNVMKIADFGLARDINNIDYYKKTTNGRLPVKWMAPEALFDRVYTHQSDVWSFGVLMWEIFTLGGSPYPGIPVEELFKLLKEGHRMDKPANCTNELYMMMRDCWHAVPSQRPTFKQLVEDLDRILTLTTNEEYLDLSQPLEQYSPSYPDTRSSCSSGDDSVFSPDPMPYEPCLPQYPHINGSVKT

Compound | IC50 [1] [µM] | IC50 [2] [µM] | IC50 [3, 5] [µM] | IC50 [4] [µM] | IC50 ([1]; read-out: FGFR4 IC50, incubation with enzyme at room temperature for 10 minutes before substrate, ATP 238 μM, FGFR4 1 nM) [µM] | IC50 [3] [µM]
C=CC(=O)Nc1ccc(-c2c(-c3ccc(Oc4cccc(C)n4)cc3)c(C(N)=O)c3cnc(C)cn23)cc1 [Example 7, 6-(4-acrylamidophenyl)-3-methyl-7-(4-((6-methylpyridin-2-yl)oxy)phenyl)pyrrolo[1,2-a]pyrazine-8-carboxamide] | 0.1 to 1 | 0.01 to 0.1 | < 0.01 | 0.1 to 1 |  | 
C=CC(=O)Nc1ccc(-c2c(-c3ccc(Oc4cccc(C)n4)cc3)c(C(N)=O)c3n2CCN(C)C3)cc1 [Example 13, 6-(4-acrylamidophenyl)-2-methyl-7-(4-((6-methylpyridin-2-yl)oxy)phenyl)-1,2,3,4-tetrahydropyrrolo[1,2-a]pyrazine-8-carboxamide] |  | 0.1 to 1 |  | 0.1 to 1 | > 1 | 0.01 to 0.1
C=CC(=O)Nc1ccc(-c2c(-c3ccc(Oc4cccc(C)n4)cc3)c(C(N)=O)c3cncc(C)n23)cc1 [Example 5, 6-(4-acrylamidophenyl)-4-methyl-7-(4-((6-methylpyridin-2-yl)oxy)phenyl)pyrrolo[1,2-a]pyrazine-8-carboxamide] | 0.1 to 1 | 0.01 to 0.1 | < 0.01 | 0.1 to 1 |  | 
C=CC(=O)Nc1ccc(-c2c(-c3ccc(Oc4cccc(C)n4)cc3)c(C(N)=O)c3cnc(CO)cn23)cc1 [Example 11, 6-(4-acrylamidophenyl)-3-(hydroxymethyl)-7-(4-((6-methylpyridin-2-yl)oxy)phenyl)pyrrolo[1,2-a]pyrazine-8-carboxamide] | 0.1 to 1 | 0.01 to 0.1 | < 0.01 | 0.1 to 1 |  | 
